Where two headings read alike, the source gives them in different places. Bridge positions count the residues as written; N and C are the ends. Peptide text beside a SMILES is read from it.
Legend:
[1] = test system: abdominal response to colorectal distension; experiment: TNBS visceral hypersensitivity rat model (colorectal distension, EMG); type: in vivo, Wistar rats; conditions: 0.3 μg/kg and 3 μg/kg; given one hour before CRD
Experimental: Male Wistar rats (220-250 g) were premedicated with 0.5 mg/kg of acepromazine injected intraperitoneally (IP) and anesthetized by intramuscular administration of 100 mg/kg of ketamine. Pairs of nichrome wire electrodes (60 cm in length and 80 μm in diameter) were implanted in the striated muscle of the abdomen, 2 cm laterally from the white line. The free ends of electrodes were exteriorized on the back of the neck and protected by a plastic tube attached to the skin. Electromyographic (EMG) recordings were started 5 days after surgery. Electrical activity of abdominal striated muscle was recorded with an electroencephalograph machine (Mini VIII, Alvar, Paris, France) using a short time constant (0.03 sec.) to remove low-frequency signals (<3 Hz).
Ten days post surgical implantation, trinitrobenzenesulphonic acid ([…]) was administered to induce rectal inflammation. TNBS (80 mg kg^−1 in 0.3 ml 50% ethanol) was administered intrarectally through a silicone rubber catheter introduced at 3 cm from the anus under light diethyl-ether anesthesia, as described (Morteau et al. 1994 Dig Dis Sci 39:1239). […] Evaluation of rectal sensitivity, as measured by EMG, was performed before (1-2 days) and 3 days following rectal instillation of TNBS.
The number of spike bursts that corresponds to abdominal contractions was determined per 5 min periods. […]

[2] = oral bioavailability in rats, LCMS detection; type: in vivo; conditions: for AUC / bioavailability: rat, plasma, 10 mg/kg; for bioavailability: oral, read-out: 6 h bioavailability determined by circulating plasma levels
Experimental: Similarly, oral bioavailabity was determined in rats using LCMS methodology. Rat plasma samples containing SEQ ID NO:3 and/or SEQ ID NO:6 were extracted using a Waters Oasis MAX 96 well solid phase extraction (SPE) plate. A 200 μL volume of rat plasma was mixed with 200 μL of ^13C9, ^15N—SEQ ID NO:3 in the well of a prepared SPE plate. The samples were drawn through the stationary phase with 15 mm Hg vacuum. All samples were rinsed with 200 μL of 2% ammonium hydroxide in water followed by 200 μL of 20% methanol in water. The samples were eluted with consecutive 100 μL volumes of 5/20/75 formic acid/water/methanol and 100 μL 5/15/80 formic acid/water/methanol. The samples were dried under nitrogen and resuspended in 100 μL of 20% methanol in water. Samples were analyzed by a Waters Quattro Micro mass spectrometer coupled to a Waters 1525 binary pump with a Waters 2777 autosampler. A 40 μL volume of each sample was injected onto a Thermo Hypersil GOLD C18 column (2.1×50 mm, 5 um). SEQ ID NO:3 and SEQ ID NO:6 were eluted by a gradient over 3 minutes with acetonitrile and water containing 0.05% trifluoroacetic acid. The Quattro Micro mass spectrometer was run in multiple reaction monitoring (MRM) mode using the mass transitions of 764>182 and 682>136 for SEQ ID NO:3 and SEQ ID NO:6 respectively. Using this methodology, SEQ ID NO:3 was dosed orally and by IV to rats at 10 mg/kg. […] To determine the oral biovailability of SEQ ID NO:6, this peptide was dosed to rats at 10 mg/kg. In this experiment, the limit of detection (LOD) for SEQ ID NO:6 was 0.78 nM. SEQ ID NO:6 was detected at all time points for the intravenous dose and was not detected beyond 240 min for the oral dose. For non-detected values, the LOD was used as an upper estimate of the concentration of SEQ ID NO:6. The calculated value for AUCp.o., (0-6h) was […] and AUCi.v., (0-6h) was 1,590,000 nM-min. The 6 h bioavailability of SEQ ID NO:6 determined by circulating plasma levels was 0.08%

[3] = target: T1, chymotrypsin (Bos taurus, UniProt P00766); experiment: in vitro proteolytic stability: chymotrypsin; type: in vitro ADME, bovine; conditions: 37° C., up to 24 h
T1 construct: purchased Sigma-Aldrich C6423; host or cells: bovine pancreas
Experimental: All samples were analyzed by LC/MS
Samples were returned to the 37° C. water bath.

[4] = test system: gastrointestinal transit; experiment: rat gastrointestinal transit (GIT) assay; type: in vivo, CD rats
Experimental: In order to determine whether the peptides increase the rate of gastrointestinal transit, the peptides and controls were tested using a murine gastrointestinal transit (GIT) assay (Moon et al. Infection and Immunity 25:127, 1979). In this assay, charcoal, which can be readily visualized in the gastrointestinal tract is administered to mice after the administration of a test compound. The distance traveled by the charcoal is measured and expressed as a percentage of the total length of the […].
Mice were fasted with free access to water for 12 to 16 hours before the treatment with peptide or control buffer. The peptides were orally administered at 1 μg/kg-1 mg/kg of peptide in buffer ([…] pH 7.5) 7 minutes before being given an oral dose of 5% Activated Carbon (Aldrich 242276-250G). Control mice were administered buffer only before being given a dose of Activated Carbon. After 15 minutes, the mice were sacrificed and their intestines from the stomach to the cecum were dissected. The total length of the intestine as well as the distance traveled from the stomach to the charcoal front was measured for each animal and the results are expressed as the percent of the total length of the intestine traveled by the charcoal front. All results are reported as the average of 10 mice±standard deviation. […] P-values are calculated using a two-sided T-Test assuming unequal variances. […]

Structure (SMILES): C[C@@H]1NC(=O)[C@@H]2CCCN2C(=O)[C@H](CC(N)=O)NC(=O)[C@@H]2CSSC[C@H](N)C(=O)N[C@H]3CSSC[C@H](NC1=O)C(=O)N[C@@H]([C@@H](C)O)C(=O)NCC(=O)N[C@H](C(=O)N[C@@H](Cc1ccc(O)cc1)C(=O)O)CSSC[C@H](NC(=O)[C@H](Cc1ccc(O)cc1)NC(=O)[C@H](CCC(=O)O)NC3=O)C(=O)N2 [SEQ ID NO:3] (H-CCEYCCNPACTGCY-OH; disulfide 1-6, 2-10, 5-13; N-terminus and C-terminus assumed)
- abdominal response to colorectal distension after TNBS [1]: Significant decreases in abdominal response
- AUC ([2]; iv, rats, 10 mg/kg IV, LCMS, read-out: AUC of SEQ ID NO:3, intravenously administered (converted)): 12.3 µM·h
- bioavailability ([2]; rats, LCMS): 0.11%
- AUC ([2]; po, rats, 10 mg/kg oral, LCMS, read-out: AUC of SEQ ID NO:3, orally dosed (converted)): 0.0129 µM·h
- 6 h bioavailability when AUC values for SEQ ID NO:6 are included ([2]; rats, SEQ ID NO:3 10 mg/kg, LCMS): 0.13%
- Cleavage of SEQ ID NO: 3 by proteolytic substance [3]: not detectable
- intestinal transit, dose dependence ([4]; female rats, similar effects in male rats, FIG. 4e): increases in a dose dependent manner
- intestinal transit ([4]; rat GIT assay, FIG. 4d): intestinal transit increases

Structure (SMILES): C[C@@H]1NC(=O)[C@@H]2CCCN2C(=O)[C@H](CC(N)=O)NC(=O)[C@@H]2CSSC[C@H](N)C(=O)N[C@H]3CSSC[C@H](NC1=O)C(=O)N[C@@H]([C@@H](C)O)C(=O)NCC(=O)N[C@H](C(=O)O)CSSC[C@H](NC(=O)[C@H](Cc1ccc(O)cc1)NC(=O)[C@H](CCC(=O)O)NC3=O)C(=O)N2 [SEQ ID NO:6] (H-CCEYCCNPACTGC-OH; disulfide 1-6, 2-10, 5-13)
- AUC ([2]; iv, rats, SEQ ID NO:3 10 mg/kg IV, metabolite, read-out: AUC for SEQ ID NO:6 in SEQ ID NO:3 intravenously dosed rats (converted)): 0.0597 µM·h
- AUC ([2]; iv, rats, SEQ ID NO:6 10 mg/kg intravenous, read-out: AUCi.v., (0-6h) (converted)): 26.5 µM·h
- bioavailability ([2]; rats, LCMS): 0.08%
- AUC ([2]; po, rats, SEQ ID NO:3 10 mg/kg oral, metabolite, read-out: AUC for SEQ ID NO:6 in rats dosed orally with SEQ ID NO:3 (converted)): 0.0036 µM·h
- AUC ([2]; po, rats, SEQ ID NO:6 10 mg/kg oral, LOD used for non-detected values, read-out: AUCp.o., (0-6h)): < 0.0218 µM·h
- detection as metabolite in plasma ([2]; rats dosed with SEQ ID NO:3): detected in the plasma
- last time detected in plasma after the oral dose ([2]; rats, SEQ ID NO:6 10 mg/kg oral, LOD 0.78 nM): ≤ 240 min

Reference: patent US20090253634A1, “Methods and Compositions for the Treatment of Gastrointestinal Disorders” (MICROBIA, INC., priority 2005, published 2009)
